Test results taken from patent publication US20260130395A1, “Water Dispersible Botanical Compositions” (Aquila Black Limited, priority 2021, published 2026).

How the values were obtained:
[1] = Stability of cannabinoid entourage and Vitamin E components of the powder concentrate by LCMSMS; assay type: physicochemical; conditions: powder stored at 21-25° C.
Experimental: At each time period, 0.05 g of powder was dissolved in 10 ml-15 of ethanol, diluted to fall within the analytical range, and injected into the LCMSMS for analysis.

[2] = Stability of cannabinoid compounds and Vitamin E components in Beverage 2 (AB Red) by LCMSMS; assay type: physicochemical

## CC(=O)Oc1c(C)c(C)c2c(c1C)CCC(C)(CCC[C@H](C)CCC[C@H](C)CCCC(C)C)O2 (stereo partly drawn) [α-Tocopheryl acetate]
[1]; 0 days
  Stability of Vitamin Es in Powder Concentrate: 2.15 mg/g powder
[1]; 1 days
  Stability of Vitamin Es in Powder Concentrate: 2.19 mg/g powder
[1]; 2 days
  Stability of Vitamin Es in Powder Concentrate: 2.11 mg/g powder
[1]; 3 days
  Stability of Vitamin Es in Powder Concentrate: 2.18 mg/g powder
[1]; 5 days
  Stability of Vitamin Es in Powder Concentrate: 2.24 mg/g powder
[1]; 8 days
  Stability of Vitamin Es in Powder Concentrate: 2.23 mg/g powder
[1]; 9 days
  Stability of Vitamin Es in Powder Concentrate: 2.09 mg/g powder
[1]; 10 days
  Stability of Vitamin Es in Powder Concentrate: 2.09 mg/g powder
[1]; 11 days
  Stability of Vitamin Es in Powder Concentrate: 2.20 mg/g powder
[1]; 12 days
  Stability of Vitamin Es in Powder Concentrate: 2.17 mg/g powder
[1]; 15 days
  Stability of Vitamin Es in Powder Concentrate: 2.24 mg/g powder
[1]; 16 days
  Stability of Vitamin Es in Powder Concentrate: 2.15 mg/g powder
[1]; 17 days
  Stability of Vitamin Es in Powder Concentrate: 2.13 mg/g powder
[1]; 18 days
  Stability of Vitamin Es in Powder Concentrate: 2.10 mg/g powder
[1]; 19 days
  Stability of Vitamin Es in Powder Concentrate: 2.21 mg/g powder
[1]; 22 days
  Stability of Vitamin Es in Powder Concentrate: 2.11 mg/g powder
[1]; 23 days
  Stability of Vitamin Es in Powder Concentrate: 2.16 mg/g powder
[1]; 24 days
  Stability of Vitamin Es in Powder Concentrate: 2.09 mg/g powder
[1]; 25 days
  Stability of Vitamin Es in Powder Concentrate: 2.24 mg/g powder
[1]; 26 days
  Stability of Vitamin Es in Powder Concentrate: 2.10 mg/g powder
[1]; 29 days
  Stability of Vitamin Es in Powder Concentrate: 2.21 mg/g powder
[1]; 30 days
  Stability of Vitamin Es in Powder Concentrate: 2.08 mg/g powder
[1]; 60 days
  Stability of Vitamin Es in Powder Concentrate: 2.15 mg/g powder
[1]; 90 days
  Stability of Vitamin Es in Powder Concentrate: 2.24 mg/g powder
[1]; 120 days
  Stability of Vitamin Es in Powder Concentrate: 2.17 mg/g powder
[1]; 150 days
  Stability of Vitamin Es in Powder Concentrate: 2.18 mg/g powder
[1]; 180 days
  Stability of Vitamin Es in Powder Concentrate: 2.20 mg/g powder
[1]; 210 days
  Stability of Vitamin Es in Powder Concentrate: 2.15 mg/g powder
[1]; 240 days
  Stability of Vitamin Es in Powder Concentrate: 2.23 mg/g powder
[1]; 270 days
  Stability of Vitamin Es in Powder Concentrate: 2.13 mg/g powder
[1]; 300 days
  Stability of Vitamin Es in Powder Concentrate: 2.09 mg/g powder
[1]; 330 days
  Stability of Vitamin Es in Powder Concentrate: 2.15 mg/g powder
[1]; 360 days
  Stability of Vitamin Es in Powder Concentrate: 2.12 mg/g powder
[1]; 390 days
  Stability of Vitamin Es in Powder Concentrate: 2.21 mg/g powder
[1]; 420 days
  Stability of Vitamin Es in Powder Concentrate: 2.21 mg/g powder
[1]; 450 days
  Stability of Vitamin Es in Powder Concentrate: 2.07 mg/g powder
[1]; 480 days
  Stability of Vitamin Es in Powder Concentrate: 2.10 mg/g powder
[1]; 510 days
  Stability of Vitamin Es in Powder Concentrate: 2.15 mg/g powder
[1]; 540 days
  Stability of Vitamin Es in Powder Concentrate: 2.21 mg/g powder
[1]; 570 days
  Stability of Vitamin Es in Powder Concentrate: 2.13 mg/g powder
[2]; stored at 8° C., 0 days
  Stability of Vitamin Es in AB Red: 12.5 µg/mL
[2]; stored at 8° C., 1 days
  Stability of Vitamin Es in AB Red: 11.6 µg/mL
[2]; stored at 8° C., 2 days
  Stability of Vitamin Es in AB Red: 11.5 µg/mL
[2]; stored at 8° C., 3 days
  Stability of Vitamin Es in AB Red: 11.6 µg/mL
[2]; stored at 8° C., 5 days
  Stability of Vitamin Es in AB Red: 12.3 µg/mL
[2]; stored at 8° C., 8 days
  Stability of Vitamin Es in AB Red: 12.2 µg/mL
[2]; stored at 8° C., 9 days
  Stability of Vitamin Es in AB Red: 12.1 µg/mL
[2]; stored at 8° C., 10 days
  Stability of Vitamin Es in AB Red: 12.6 µg/mL
[2]; stored at 8° C., 11 days
  Stability of Vitamin Es in AB Red: 11.9 µg/mL
[2]; stored at 8° C., 12 days
  Stability of Vitamin Es in AB Red: 12.4 µg/mL
[2]; stored at 8° C., 15 days
  Stability of Vitamin Es in AB Red: 12.0 µg/mL
[2]; stored at 8° C., 16 days
  Stability of Vitamin Es in AB Red: 11.5 µg/mL
[2]; stored at 8° C., 17 days
  Stability of Vitamin Es in AB Red: 11.8 µg/mL
[2]; stored at 8° C., 18 days
  Stability of Vitamin Es in AB Red: 12.5 µg/mL
[2]; stored at 8° C., 19 days
  Stability of Vitamin Es in AB Red: 12.5 µg/mL
[2]; stored at 8° C., 22 days
  Stability of Vitamin Es in AB Red: 12.5 µg/mL
[2]; stored at 8° C., 23 days
  Stability of Vitamin Es in AB Red: 11.9 µg/mL
[2]; stored at 8° C., 24 days
  Stability of Vitamin Es in AB Red: 12.6 µg/mL
[2]; stored at 8° C., 25 days
  Stability of Vitamin Es in AB Red: 12.3 µg/mL
[2]; stored at 8° C., 26 days
  Stability of Vitamin Es in AB Red: 11.6 µg/mL
[2]; stored at 8° C., 29 days
  Stability of Vitamin Es in AB Red: 11.7 µg/mL
[2]; stored at 8° C., 30 days
  Stability of Vitamin Es in AB Red: 12.1 µg/mL
[2]; stored at 8° C., 60 days
  Stability of Vitamin Es in AB Red: 11.4 µg/mL
[2]; stored at 8° C., 90 days
  Stability of Vitamin Es in AB Red: 11.6 µg/mL
[2]; stored at 8° C., 120 days
  Stability of Vitamin Es in AB Red: 11.7 µg/mL
[2]; stored at 8° C., 150 days
  Stability of Vitamin Es in AB Red: 12.3 µg/mL
[2]; stored at 8° C., 180 days
  Stability of Vitamin Es in AB Red: 12.6 µg/mL
[2]; stored at 8° C., 210 days
  Stability of Vitamin Es in AB Red: 11.8 µg/mL
[2]; stored at 8° C., 240 days
  Stability of Vitamin Es in AB Red: 11.2 µg/mL
[2]; stored at 8° C., 270 days
  Stability of Vitamin Es in AB Red: 11.6 µg/mL
[2]; stored at 8° C., 300 days
  Stability of Vitamin Es in AB Red: 11.2 µg/mL
[2]; stored at 8° C., 330 days
  Stability of Vitamin Es in AB Red: 11.3 µg/mL
[2]; stored at 8° C., 360 days
  Stability of Vitamin Es in AB Red: 11.3 µg/mL
[2]; stored at 8° C., 390 days
  Stability of Vitamin Es in AB Red: 11.4 µg/mL
[2]; stored at 8° C., 420 days
  Stability of Vitamin Es in AB Red: 11.2 µg/mL
[2]; stored at 8° C., 450 days
  Stability of Vitamin Es in AB Red: 11.4 µg/mL
[2]; stored at 8° C., 480 days
  Stability of Vitamin Es in AB Red: 10.7 µg/mL
[2]; stored at 8° C., 510 days
  Stability of Vitamin Es in AB Red: 10.6 µg/mL
[2]; stored at 8° C., 540 days
  Stability of Vitamin Es in AB Red: 10.8 µg/mL
[2]; stored at 8° C., 570 days
  Stability of Vitamin Es in AB Red: 10.8 µg/mL
[2]; stored at 21-25° C., 0 days
  Stability of Vitamin Es in AB Red: 12.5 µg/mL
[2]; stored at 21-25° C., 1 days
  Stability of Vitamin Es in AB Red: 12.1 µg/mL
[2]; stored at 21-25° C., 2 days
  Stability of Vitamin Es in AB Red: 12.5 µg/mL
[2]; stored at 21-25° C., 3 days
  Stability of Vitamin Es in AB Red: 11.7 µg/mL
[2]; stored at 21-25° C., 5 days
  Stability of Vitamin Es in AB Red: 12.2 µg/mL
[2]; stored at 21-25° C., 8 days
  Stability of Vitamin Es in AB Red: 11.4 µg/mL
[2]; stored at 21-25° C., 9 days
  Stability of Vitamin Es in AB Red: 11.6 µg/mL
[2]; stored at 21-25° C., 10 days
  Stability of Vitamin Es in AB Red: 12.5 µg/mL
[2]; stored at 21-25° C., 11 days
  Stability of Vitamin Es in AB Red: 12.3 µg/mL
[2]; stored at 21-25° C., 12 days
  Stability of Vitamin Es in AB Red: 12.3 µg/mL
[2]; stored at 21-25° C., 15 days
  Stability of Vitamin Es in AB Red: 12.1 µg/mL
[2]; stored at 21-25° C., 16 days
  Stability of Vitamin Es in AB Red: 12.1 µg/mL
[2]; stored at 21-25° C., 17 days
  Stability of Vitamin Es in AB Red: 11.3 µg/mL
[2]; stored at 21-25° C., 18 days
  Stability of Vitamin Es in AB Red: 12.0 µg/mL
[2]; stored at 21-25° C., 19 days
  Stability of Vitamin Es in AB Red: 12.0 µg/mL
[2]; stored at 21-25° C., 22 days
  Stability of Vitamin Es in AB Red: 12.1 µg/mL
[2]; stored at 21-25° C., 23 days
  Stability of Vitamin Es in AB Red: 11.7 µg/mL
[2]; stored at 21-25° C., 24 days
  Stability of Vitamin Es in AB Red: 11.5 µg/mL
[2]; stored at 21-25° C., 25 days
  Stability of Vitamin Es in AB Red: 12.4 µg/mL
[2]; stored at 21-25° C., 26 days
  Stability of Vitamin Es in AB Red: 12.0 µg/mL
[2]; stored at 21-25° C., 29 days
  Stability of Vitamin Es in AB Red: 11.9 µg/mL
[2]; stored at 21-25° C., 30 days
  Stability of Vitamin Es in AB Red: 12.6 µg/mL
[2]; stored at 21-25° C., 60 days
  Stability of Vitamin Es in AB Red: 11.6 µg/mL
[2]; stored at 21-25° C., 90 days
  Stability of Vitamin Es in AB Red: 12.3 µg/mL
[2]; stored at 21-25° C., 120 days
  Stability of Vitamin Es in AB Red: 12.3 µg/mL
[2]; stored at 21-25° C., 150 days
  Stability of Vitamin Es in AB Red: 11.4 µg/mL
[2]; stored at 21-25° C., 180 days
  Stability of Vitamin Es in AB Red: 12.0 µg/mL
[2]; stored at 21-25° C., 210 days
  Stability of Vitamin Es in AB Red: 11.6 µg/mL
[2]; stored at 21-25° C., 240 days
  Stability of Vitamin Es in AB Red: 11.3 µg/mL
[2]; stored at 21-25° C., 270 days
  Stability of Vitamin Es in AB Red: 11.4 µg/mL
[2]; stored at 21-25° C., 300 days
  Stability of Vitamin Es in AB Red: 11.2 µg/mL
[2]; stored at 21-25° C., 330 days
  Stability of Vitamin Es in AB Red: 11.6 µg/mL
[2]; stored at 21-25° C., 360 days
  Stability of Vitamin Es in AB Red: 11.1 µg/mL
[2]; stored at 21-25° C., 390 days
  Stability of Vitamin Es in AB Red: 11.3 µg/mL
[2]; stored at 21-25° C., 420 days
  Stability of Vitamin Es in AB Red: 11.3 µg/mL
[2]; stored at 21-25° C., 450 days
  Stability of Vitamin Es in AB Red: 11.2 µg/mL
[2]; stored at 21-25° C., 480 days
  Stability of Vitamin Es in AB Red: 10.4 µg/mL
[2]; stored at 21-25° C., 510 days
  Stability of Vitamin Es in AB Red: 10.4 µg/mL
[2]; stored at 21-25° C., 540 days
  Stability of Vitamin Es in AB Red: 10.6 µg/mL
[2]; stored at 21-25° C., 570 days
  Stability of Vitamin Es in AB Red: 10.6 µg/mL
